Read-outs that look alike come from different tables or passages of the source.
Legend:
human α2A‐adrenoceptor [1] = biological target: T1, human α2A‐adrenoceptor (Homo sapiens, UniProt P08913); conditions: for Log efficacy ratio (KD/IC50): binding KD / Gi IC50 of CRE‐SPAP
T1 sequence (P08913 1-465): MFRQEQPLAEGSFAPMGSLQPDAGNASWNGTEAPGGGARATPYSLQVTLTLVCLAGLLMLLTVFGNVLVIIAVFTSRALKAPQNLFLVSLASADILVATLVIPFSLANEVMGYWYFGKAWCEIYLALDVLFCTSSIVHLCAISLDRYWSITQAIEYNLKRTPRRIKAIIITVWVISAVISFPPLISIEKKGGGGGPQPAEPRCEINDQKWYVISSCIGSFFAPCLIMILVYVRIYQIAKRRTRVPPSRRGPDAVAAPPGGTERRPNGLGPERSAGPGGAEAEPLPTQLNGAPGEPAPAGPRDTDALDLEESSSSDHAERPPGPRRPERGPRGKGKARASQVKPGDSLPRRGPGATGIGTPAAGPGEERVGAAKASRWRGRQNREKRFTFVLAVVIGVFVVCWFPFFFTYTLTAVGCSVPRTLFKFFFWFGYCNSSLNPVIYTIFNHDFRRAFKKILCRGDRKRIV

human α2C‐adrenoceptor [2] = biological target: T2, human α2C‐adrenoceptor (Homo sapiens, UniProt P18825)
T2 sequence (P18825 1-462): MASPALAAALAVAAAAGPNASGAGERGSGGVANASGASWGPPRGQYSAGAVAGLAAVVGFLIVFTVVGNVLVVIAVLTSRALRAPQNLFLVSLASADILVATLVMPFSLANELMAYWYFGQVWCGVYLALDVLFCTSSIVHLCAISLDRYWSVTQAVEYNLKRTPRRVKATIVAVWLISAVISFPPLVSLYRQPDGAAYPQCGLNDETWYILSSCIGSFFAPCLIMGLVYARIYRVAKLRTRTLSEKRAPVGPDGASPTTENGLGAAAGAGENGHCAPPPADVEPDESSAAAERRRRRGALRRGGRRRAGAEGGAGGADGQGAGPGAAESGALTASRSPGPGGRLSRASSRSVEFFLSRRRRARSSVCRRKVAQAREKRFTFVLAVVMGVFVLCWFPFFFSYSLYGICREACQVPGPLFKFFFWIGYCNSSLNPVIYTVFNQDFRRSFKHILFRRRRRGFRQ

human α2A‐adrenoceptor [3] = biological target: T1, human α2A‐adrenoceptor; assay: 3H‐rauwolscine whole cell binding in CHO‐α2A cells; parameters: expressed in transfected cells; host or cells: CHO-K1 with CRE-SPAP reporter; conditions: for Selectivity ratio α2A vs α2B (higher affinity for α2A) / Selectivity ratio α2A vs α2C (higher affinity for α2A): fold, from KD values, 1 = no selectivity
human α2C‐adrenoceptor [4] = biological target: T2, human α2C‐adrenoceptor; assay: 3H‐rauwolscine whole cell binding in CHO‐α2C cells; parameters: expressed in transfected cells; host or cells: CHO-K1 with CRE-SPAP reporter; conditions: for Selectivity ratio α2B vs α2C (higher affinity for α2C): fold, from KD values, 1 = no selectivity
human α2A‐adrenoceptor [5] = biological target: T1, human α2A‐adrenoceptor; assay: ERK1/2‐phosphorylation in CHO‐α2A cells; assay type: cell-based; parameters: expressed in transfected cells; host or cells: CHO-K1 with CRE-SPAP reporter
human α2C‐adrenoceptor [6] = biological target: T2, human α2C‐adrenoceptor; assay: ERK1/2‐phosphorylation in CHO‐α2C cells; assay type: cell-based; parameters: expressed in transfected cells; host or cells: CHO-K1 with CRE-SPAP reporter
[7] = CHO‐α2A (cell line 1), absence of forskolin
[8] = CHO‐α2C cells, % inhibition from the 3 μM forskolin control, mean ± SEM
[9] = CHO‐α2C cells, CRE‐SPAP production in the absence of forskolin
[10] = CHO‐α2C cells, log KD from 3H‐rauwolscine binding versus CRE‐SPAP log IC50
[11] = Log IC50 (Gi), CRE‐SPAP (with forskolin), CHO‐α2C cells, inhibition of 3 μM forskolin‐stimulated CRE‐SPAP production, given as negative log IC50, mean ± SEM
[12] = 3H‐rauwolscine whole cell binding, ^app: apparent KD, IC50 from extrapolated curve as not all specific binding was inhibited, read-out: Log KD (apparent), CHO‐α2A (converted)
[13] = CHO‐α2A, 3H‐rauwolscine whole cell binding, given as negative log KD, read-out: Log KD (binding) (converted)
[14] = CHO‐α2C cells, 3H‐rauwolscine whole cell binding, given as negative log KD, mean only (SEM in Table 4), read-out: Log KD (converted)
[15] = CHO‐α2A, maximum response compared to 10 μM PDBu
[16] = CHO‐α2A, read-out: Log EC50, ERK1/2‐phosphorylation (converted)
[17] = CHO‐α2C cells, maximum response compared to 10 μM PDBu, mean ± SEM
[18] = CHO‐α2C cells, given as negative log EC50, mean ± SEM, read-out: Log EC50, ERK1/2‐phosphorylation (converted)
[19] = CHO‐α2A (cell line 1), % inhibition from the 3 μM forskolin control, inhibition only
[20] = Log IC50 (Gi), CRE‐SPAP (with forskolin), CHO‐α2A (cell line 1, 5830 fmol/mg protein), 3 μM forskolin
[21] = 3H‐rauwolscine whole cell binding, living cells, negative log KD, mean ± SEM, read-out: Log KD, CHO‐α2A (converted)
[22] = 3H‐rauwolscine whole cell binding, living cells, negative log KD, mean ± SEM, read-out: Log KD, CHO‐α2C (converted)

Structure (SMILES) | Log EC50 (Gs), CRE‐SPAP (without forskolin) (human α2A‐adrenoceptor [1]; [7]) | % inhibition, CRE‐SPAP (with forskolin) (human α2C‐adrenoceptor [2]; [8]) [%] | Log EC50 (Gs), CRE‐SPAP (without forskolin) (human α2C‐adrenoceptor [2]; [9]) | Log efficacy ratio (KD/IC50) (human α2C‐adrenoceptor [2]; [10]) | IC50 (human α2C‐adrenoceptor [2]; [11]) [µM] | Kd (human α2A‐adrenoceptor [3]; [12]) [µM] | Kd (human α2A‐adrenoceptor [3]; [13]) [µM] | Selectivity ratio α2A vs α2B (higher affinity for α2A) (human α2A‐adrenoceptor [3]) | Selectivity ratio α2A vs α2C (higher affinity for α2A) (human α2A‐adrenoceptor [3]) | Kd (human α2C‐adrenoceptor [4]; [14]) [µM] | Selectivity ratio α2B vs α2C (higher affinity for α2C) (human α2C‐adrenoceptor [4]) | % 10 μM PDBu, ERK1/2‐phosphorylation (human α2A‐adrenoceptor [5]; [15]) [%] | EC50 (human α2A‐adrenoceptor [5]; [16]) [µM] | % 10 μM PDBu, ERK1/2‐phosphorylation (human α2C‐adrenoceptor [6]; [17]) [%] | EC50 (human α2C‐adrenoceptor [6]; [18]) [µM] | % inhibition, CRE‐SPAP (with forskolin) (human α2A‐adrenoceptor [1]; [19]) [%] | Log efficacy ratio (KD/IC50) (human α2A‐adrenoceptor [1]; CHO‐α2A) | IC50 (human α2A‐adrenoceptor [1]; [20]) [µM] | Kd (human α2A‐adrenoceptor [3]; [21]) [µM] | Kd (human α2C‐adrenoceptor [4]; [22]) [µM] | also measured
COc1ccc(OC)c(C(O)C(C)N)c1 (stereo not drawn) [Methoxamine] | No response | 72.3 ± 13.6 | No response | 1.01 | 11 | 93.3 | 93.3 | 2.5 | 1.2 | 112 | 2.1 | 120.9 ± 29.4 | 6.03 | 131.0 ± 19.2 | 2.34 | – | – | – | – | – | IC50 (human α2A‐adrenoceptor [1]; IC50 (Gi), CRE‐SPAP (with forskolin), CHO‐α2A, 3 μM forskolin): > 100 µM; Kd (human α2C‐adrenoceptor [4]; 3H‐rauwolscine whole cell binding, ^app: apparent KD, IC50 from extrapolated curve as not all specific binding was inhibited, read-out: Log KD (apparent), CHO‐α2C (converted)): 112 µM
c1ccc2c(CC3=NCCN3)cccc2c1 [Naphazoline] | No response | 81.3 ± 4.2 | No response | 0.72 | 0.0759 | – | 0.0977 | 16.2 | 4.1 | 0.398 | 4.0 | 118.1 ± 9.0 | 0.00191 | 157.8 ± 12.6 | 0.0126 | 83.1 ± 3.6 | 0.78 | 0.0162 | 0.0977 | 0.398 | % inhibition, CRE-SPAP (with forskolin) (human α2A‐adrenoceptor [1]; CHO-α2A cell line 2, 4724 fmol/mg protein, from 3 μM forskolin control): 69.4 ± 5.8%; % inhibition, CRE-SPAP (with forskolin) (human α2A‐adrenoceptor [1]; CHO-α2A cell line 3, 121 fmol/mg protein, from 3 μM forskolin control): 24.8 ± 4.3%; IC50 (human α2A‐adrenoceptor [1]; Log IC50 (Gi), CRE-SPAP (with forskolin), CHO-α2A cell line 2, expression 4724 fmol/mg protein, 3 μM forskolin): 0.0575 µM; IC50 (human α2A‐adrenoceptor [1]; Log IC50 (Gi), CRE-SPAP (with forskolin), CHO-α2A cell line 3, expression 121 fmol/mg protein, 3 μM forskolin): 0.417 µM
NCC(O)c1ccc(O)cc1 (stereo not drawn) [Octopamine] | No response | 86.3 ± 5.2 | No response | – | – | 417 | 417 | – | – | – | – | 124.1 ± 11.7 | 4.79 | 153.8 ± 17.9 | 7.76 | 98.1 ± 5.7 | – | – | – | – | IC50 (human α2A‐adrenoceptor [1]): 132 µM; IC50 (human α2C‐adrenoceptor [2]): 52.5 µM; IC50 (human α2C‐adrenoceptor [4]; 3H‐rauwolscine whole cell binding, no KD obtained, read-out: IC50 in binding, CHO‐α2C): ~1000 µM
Nc1cc(Cl)c(N=C2NCCN2)c(Cl)c1 [Para‐amino‐clonidine] | – | – | – | – | – | – | – | – | – | – | – | – | – | – | – | – | – | – | – | – | % 3μM forskolin, CRE-SPAP (without forskolin) (human α2A‐adrenoceptor [1]): 12.9 ± 4.1%; % 3 μM forskolin, CRE‐SPAP (without forskolin) (human α2A‐adrenoceptor [1]): 37.6 ± 4.0%; % inhibition, CRE-SPAP (with forskolin) (human α2A‐adrenoceptor [1]): 67.5 ± 4.8%; Log EC50 (Gs), CRE-SPAP (with forskolin) (human α2A‐adrenoceptor [1]): -6.29 ± 0.32; Log EC50 (Gs), CRE‐SPAP (with forskolin) (human α2A‐adrenoceptor [1]): −6.81 ± 0.15; Log EC50 (Gs), CRE‐SPAP (without forskolin) (human α2A‐adrenoceptor [1]): −6.55 ± 0.10; Log IC50 (Gi), CRE‐SPAP (with forskolin) (human α2A‐adrenoceptor [1]): −8.74 ± 0.12; % inhibition, CRE‐SPAP (with forskolin) (human α2C‐adrenoceptor [2]): 82.3 ± 2.2%; Log EC50 (Gs), CRE‐SPAP (without forskolin) (human α2C‐adrenoceptor [2]): No response; Log IC50 (Gi), CRE‐SPAP (with forskolin) (human α2C‐adrenoceptor [2]): −8.09 ± 0.07; Log efficacy ratio (KD/IC50) (human α2C‐adrenoceptor [2]): 1.78; Log KD (binding) (human α2A‐adrenoceptor [3]): −6.35; Log KD, CHO‐α2A (human α2A‐adrenoceptor [3]): −6.35 ± 0.03; Log KD (human α2C‐adrenoceptor [4]): −6.31; % 10 μM PDBu, ERK1/2‐phosphorylation (human α2A‐adrenoceptor [5]): 141.9 ± 10.6%; Log EC50, ERK1/2‐phosphorylation (human α2A‐adrenoceptor [5]): −9.58 ± 0.12; % 10 μM PDBu, ERK1/2‐phosphorylation (human α2C‐adrenoceptor [6]): 132.6 ± 16.1%; Log EC50, ERK1/2‐phosphorylation (human α2C‐adrenoceptor [6]): −8.68 ± 0.13
C1COC(NC(C2CC2)C2CC2)=N1 [Rilmenidine] | No response | 69.0 ± 7.9 | No response | 0.52 | 0.468 | – | 1.55 | 2.6 | 1.0 | 1.55 | 2.6 | 144.0 ± 22.0 | 0.0148 | 125.2 ± 15.6 | 0.049 | 94.2 ± 3.6 | 0.96 | 0.17 | 1.55 | 1.55 | –
CNCC(O)c1ccc(O)cc1 (stereo not drawn) [Synephrine] | – | – | – | – | – | – | – | – | – | – | – | – | – | – | – | – | – | – | – | – | % inhibition, CRE‐SPAP (with forskolin) (human α2A‐adrenoceptor [1]): 75.6 ± 5.6%; IC50 (human α2A‐adrenoceptor [1]): 9.55 µM; Log EC50 (Gs), CRE‐SPAP (without forskolin) (human α2A‐adrenoceptor [1]): No response; % inhibition, CRE‐SPAP (with forskolin) (human α2C‐adrenoceptor [2]): 88.1 ± 8.5%; IC50 (human α2C‐adrenoceptor [2]): 34.7 µM; Log EC50 (Gs), CRE‐SPAP (without forskolin) (human α2C‐adrenoceptor [2]): No response; Kd (human α2A‐adrenoceptor [3]): 89.1 µM; Kd (human α2C‐adrenoceptor [4]): 120 µM; % 10 μM PDBu, ERK1/2‐phosphorylation (human α2A‐adrenoceptor [5]): 114.5 ± 12.3%; EC50 (human α2A‐adrenoceptor [5]): 0.776 µM; % 10 μM PDBu, ERK1/2‐phosphorylation (human α2C‐adrenoceptor [6]): 112.8 ± 10.7%; EC50 (human α2C‐adrenoceptor [6]): 3.24 µM

Reference: PMC9471048, “The signaling and selectivity of α‐adrenoceptor agonists for the human α2A, α2B and α2C‐adrenoceptors and comparison with human α1 and β‐adrenoceptors” (Pharmacology Research & Perspectives, 2022)
